Measurements as given in article PMC11583597, “Brain uptake pharmacokinetics of albiglutide, dulaglutide, tirzepatide, and DA5-CH in the search for new treatments of Alzheimer’s and Parkinson’s diseases” (Tissue Barriers, 2023).

Experiments:
[1] = Brain influx and initial volume of distribution (multiple-time regression analysis); parameters: species or system male CD-1 mice; details: mouse, in vivo, iv
Procedure: Following anesthetization, the jugular vein and right carotid artery were exposed. Mice were given a jugular vein injection of 0.2 ml BSA-LR containing 3 × 10^5 cpm-1×10^6 cpm of an ^125I/^14C-labeled IRA and 5 × 10^5 cpm of ^99mTc-Alb. Blood samples were collected from the carotid artery at various time points from 1 to 60 min after iv injection (see Figure 1). Mice were then decapitated, and their brains were removed and weighed. After clotting, the arterial blood was centrifuged at 3200 ×g for 10 min. Levels of radioactivity in serum (50 μl) and brain were measured in a gamma counter for ^125I and ^99mTc for 3 min. After ^99mTc decay, ^14C-DA5-CH samples were solubilized with Solvable (Sigma), transferred to scintillation vials containing Ecoscint (National Diagnostics) and ^14C was measured in a beta counter. Sample injection checks were taken throughout the course of the study to calculate the mean injected cpm/mouse. To determine the rate of ^125I/^14C-IRA clearance from the serum, the results were expressed as the percentage of an injected dose in each ml of serum (%Inj/ml), which was calculated by dividing the cpm in a ml of serum (cpm/ml serum) by the cpm injected into the mouse (cpm/Inj):
To calculate the blood-to-brain unidirectional influx constant (Ki), multiple-time regression analysis was used as first described by Patlak, Blasberg, and Fenstermacher.[67],[68] The brain/serum (B/S) ratios (μl/g) of the ^125I/^14C-IRA in each gram of brain were calculated from the data in Section 2.6 and plotted against their respective exposure times as previously applied by Rhea et al. 2018.[69] Exposure time differs from clock time in that exposure time corrects for clearance of the ^125I/^14C-IRA from blood and thus, better represents the amount of ^125I/^14C-IRA available for BBB transport at any given time. Delta B/S ratios were calculated by subtracting the vascular space as measured by the B/S ratio for ^99mTc-Alb from the B/S ratio for the respective ^125I/^14C-IRA. Thus, delta B/S ratios represent material that has been taken up by or has crossed the BBB. The slope of the linear portion of the relation between delta B/S ratios and exposure time defines Ki (μl/g-min) and is reported with its error term. This represents Model 1 for DA5-CH. The y-intercept of this linear portion of the relation defines Vi, (μl/g), the initial volume of distribution in brain at t = 0, which is the functional volume per unit brain mass of a soluble compound that exchanges rapidly and reversibly with plasma.[68] Vi consists of the vascular space (Vv) and any residual space after accounting for Vv and usually represents vascular binding (Vr). Since we correct each ^125I/^14C-IRA delta B/S for vascular space, our y-intercept values likely represent vascular binding. For DA5-CH, there appeared to be rapid, early transport that would indicate a Vr equal to 0. Therefore, using Vr equal to 0, we calculated an estimate of this new Ki and refer to it throughout the manuscript as Model 2.

[2] = human, in vivo; cited from earlier work
[3] = Long-term (6 h) measurement of brain uptake; type: in vivo, male CD-1 mice; details: mouse, in vivo, iv
Procedure: Substances that are enzymatically stable in blood and have slow clearance from the circulation can slowly enter the brain using the extracellular pathways.[63],[64] […] Albumin enters the brain by extracellular pathways,[70] and so we used albumin in two ways: we used ^99mTc-Alb circulating for 10 min to measure vascular space and ^99mTc-Alb circulating for 6 h to measure brain uptake by extracellular pathways. This is similar to the time-differential methodology developed by Poduslo and Curran to measure a substance’s vascular space and its uptake rate.[71] Following anesthetization, the jugular vein and right carotid artery were exposed. Mice were given an iv injection of 0.1% BSA-LR containing 1 × 10^6 cpm of ^125I-IRA or 5 × 10^5 cpm of ^99mTc-Alb, which circulated for 6 h. Mice receiving only the ^125I-IRA were given an injection of 5 × 10^5 cpm of ^99mTc-Alb 10 min prior to the end of the 6 h circulation time to act as a vascular marker. A separate set of mice received an iv injection of both 1 × 10^6 cpm of ^125I-IRA and 5 × 10^5 cpm of ^99mTc-Alb that circulated for 10 min. Following the 10 min or 6 h circulation time points, blood and brain were collected as described above. Thus, we had B/S ratios for ^99mTc-Alb measuring vascular space (10 min circulation time) and B/S ratios for ^99mTc-Alb measuring vascular space plus uptake by the extracellular pathways (6 h circulation time) which could be compared to the B/S ratios for the ^125I-IRAs after 10 min and 6 h of circulation.
Immediately after counting the radioactivity, the blood and brains from the 10 min and 6 h time points were processed as described in Section 2.5 for in vivo stability. For further comparison, data from the 1 h time point were taken from the original pharmacokinetic uptake study. The ^125I-IRA brain % acid precipitation (%AP) was divided by the ^125I-IRA serum %AP at each time point to calculate the %AP B/S ratio. This value was multiplied by the B/S ratio for each ^125I-IRA to correct for degradation over the 10 min, 1 h, or 6 h time periods. […]

## CC[C@H](C)[C@H](NC(=O)[C@H](CC(C)C)NC(=O)[C@H](Cc1c[nH]c2ccccc12)NC(=O)[C@H](CCC(N)=O)NC(=O)[C@@H](NC(=O)[C@H](Cc1ccccc1)NC(=O)[C@H](C)NC(=O)[C@H](CCCCNC(=O)COCCOCCNC(=O)COCCOCCNC(=O)CC[C@H](NC(=O)CCCCCCCCCCCCCCCCCCC(=O)O)C(=O)O)NC(=O)[C@H](CCC(N)=O)NC(=O)[C@H](C)NC(=O)[C@@H](NC(=O)[C@H](CCCCN)NC(=O)[C@H](CC(=O)O)NC(=O)[C@H](CC(C)C)NC(=O)C(C)(C)NC(=O)[C@@H](NC(=O)[C@H](CO)NC(=O)[C@H](Cc1ccc(O)cc1)NC(=O)[C@H](CC(=O)O)NC(=O)[C@H](CO)NC(=O)[C@@H](NC(=O)[C@H](Cc1ccccc1)NC(=O)[C@@H](NC(=O)CNC(=O)[C@H](CCC(=O)O)NC(=O)C(C)(C)NC(=O)[C@@H](N)Cc1ccc(O)cc1)[C@@H](C)O)[C@@H](C)O)[C@@H](C)CC)[C@@H](C)CC)C(C)C)C(=O)N[C@@H](C)C(=O)NCC(=O)NCC(=O)N1CCC[C@H]1C(=O)N[C@@H](CO)C(=O)N[C@@H](CO)C(=O)NCC(=O)N[C@@H](C)C(=O)N1CCC[C@H]1C(=O)N1CCC[C@H]1C(=O)N1CCC[C@H]1C(=O)N[C@@H](CO)C(N)=O [Tirzepatide]
[1]
  Brain influx within 1 h of iv injection (detection): did not detect brain influx
[2]
  half-lives in human serum: 111 to 124 h
[3]
  Amount present in brain at 6 h (AP corrected delta %Inj/g): 0.005 %Inj/g
